Results reported in EP4273147A1, “SUBSTITUTED SPIROLACTAMS, SALTS THEREOF AND THEIR USE AS HERBICIDALLY ACTIVE SUBSTANCES” (Bayer Aktiengesellschaft, priority 2022, dated 2023).

Assays:
ECHCG [1] = assay: Herbicidal pre-emergence action (Table A2); type: in vivo, Echinochloa crus-galli; settings: visual grading after ca. 3 weeks
Summary of the method: (§1)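 For this pre-emergence setup, sandy loam pots received seeds of one monocot and one dicot weed species each. The seeds were then covered with soil.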

LOLRI [2] = assay: Herbicidal pre-emergence action (Table A3); type: in vivo, Lolium rigidum; settings: application rate 320 g/ha; visual grading after ca. 3 weeks
Summary of the method: as §1

MATIN [3] = assay: Herbicidal pre-emergence action (Table A4); type: in vivo, Matricaria inodora; settings: application rate 1280 g/ha; visual grading after ca. 3 weeks
Summary of the method: as §1

SETVI [4] = assay: Herbicidal pre-emergence action (Table A5); type: in vivo, Setaria viridis; settings: application rate 320 g/ha; visual grading after ca. 3 weeks
Summary of the method: as §1

STEME = assay: Herbicidal pre-emergence action (Table A6); type: in vivo, Stellaria media; settings: application rate 320 g/ha; visual grading after ca. 3 weeks
Summary of the method: as §1

POAAN [5] = assay: Herbicidal pre-emergence action (Table A7); type: in vivo, Poa annua; settings: application rate 320 g/ha; visual grading after ca. 3 weeks
Summary of the method: as §1

AMARE = assay: Herbicidal pre-emergence action (Table A8); type: in vivo, Amaranthus retroflexus; settings: application rate 1280 g/ha; visual grading after ca. 3 weeks vs untreated controls (100% = plants have died off, 0% = as control plants)
Summary of the method: as §1

KCHSC = assay: Herbicidal pre-emergence action (Table A10); type: in vivo, Kochia scoparia; settings: application rate 320 g/ha; visual grading after ca. 3 weeks
Summary of the method: as §1

VERPE [6] = assay: Herbicidal pre-emergence action (Table A11); type: in vivo, Veronica persica; settings: application rate 1280 g/ha; visual grading after ca. 3 weeks
Summary of the method: as §1

DIGSA [7] = assay: Herbicidal pre-emergence action (Table A12); type: in vivo, Digitaria sanguinalis; settings: visual grading after ca. 3 weeks
Summary of the method: as §1

ABUTH [8] = assay: Herbicidal post-emergence action (Table B1); type: in vivo, Abutilon theophrasti; settings: application rate 1280 g/ha; treated at one-leaf stage; rated visually after about 3 weeks vs untreated controls (100% = plants have died, 0% = like control plants)
Summary of the method: (§2)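 Greenhouse pot test in sandy loam; weeds sown, treated post-emergence at one-leaf stage 2–3 weeks after sowing. Activity rated visually about 3 weeks later versus untreated controls, 100% = plants dead, 0% = like controls.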

ECHCG [9] = assay: Herbicidal post-emergence action (Table B3); type: in vivo, Echinochloa crus-galli; settings: application rate 1280 g/ha; rated visually after about 3 weeks
Summary of the method: as §2

LOLRI [10] = assay: Herbicidal post-emergence action (Table B5); type: in vivo, Lolium rigidum; settings: application rate 1280 g/ha; rated visually after about 3 weeks
Summary of the method: as §2

MATIN [11] = assay: Herbicidal post-emergence action (Table B6); type: in vivo, Matricaria inodora; settings: application rate 1280 g/ha; rated visually after about 3 weeks
Summary of the method: as §2

POAAN [12] = assay: Herbicidal post-emergence action (Table B7); type: in vivo, Poa annua; settings: application rate 1280 g/ha
Summary of the method: as §2

VERPE [13] = assay: Herbicidal post-emergence action (Table B10); type: in vivo, Veronica persica; settings: application rate 1280 g/ha
Summary of the method: as §2

DIGSA [14] = assay: Herbicidal post-emergence action (Table B12); type: in vivo, Digitaria sanguinalis; settings: application rate 1280 g/ha
Summary of the method: as §2

ALOMY [15] = assay: Herbicidal pre-emergence action, section C (Table C2); type: in vivo, Alopecurus myosuroides; settings: application rate 320 g/ha; visual grading after ca. 3 weeks
DIGSA [16] = assay: Herbicidal pre-emergence action, section C (Table C5); type: in vivo, Digitaria sanguinalis; settings: visual grading after ca. 3 weeks
ECHCG [17] = assay: Herbicidal pre-emergence action, section C (Table C6); type: in vivo, Echinochloa crus-galli; settings: application rate 80 g/ha; visual grading after ca. 3 weeks
LOLRI [18] = assay: Herbicidal pre-emergence action, section C (Table C7); type: in vivo, Lolium rigidum; settings: application rate 320 g/ha; visual grading after ca. 3 weeks
MATIN [19] = assay: Herbicidal pre-emergence action, section C (Table C8); type: in vivo, Matricaria inodora; settings: application rate 320 g/ha; visual grading after ca. 3 weeks
POLCO = assay: Herbicidal pre-emergence action, section C (Table C9); type: in vivo, Polygonum convolvulus; settings: application rate 320 g/ha; visual grading after ca. 3 weeks
From the text: (§4) Seeds of mono- and dicotyledonous weed plants and crop plants were sown, in plastic or organic planting pots, in sandy loam and covered with soil. The compounds according to the invention, formulated in the form of wettable powders (WP) or as emulsifiable concentrates (EC), were applied to the surface of the covering soil as aqueous suspension or emulsion, with the addition of 0.5% of an additive, at an application rate of 600 1 of water/ha (converted). Following treatment, the pots were placed in a greenhouse and kept under optimum growth conditions for the test plants.

SETVI [20] = assay: Herbicidal pre-emergence action, section C (Table C10); type: in vivo, Setaria viridis; settings: application rate 320 g/ha; visual grading after ca. 3 weeks
VERPE [21] = assay: Herbicidal pre-emergence action, section C (Table C11); type: in vivo, Veronica persica; settings: visual grading after ca. 3 weeks
VIOTR [22] = assay: Herbicidal pre-emergence action, section C (Table C12); type: in vivo, Viola tricolor; settings: application rate 80 g/ha; visual grading after ca. 3 weeks
From the text: as §4

ZEAMX [23] = assay: Pre-emergence effects on crop plants (Table D1); type: in vivo, Zea mays; settings: crop plant, visual grading after ca. 3 weeks
TRZAS [24] = assay: Pre-emergence effects on crop plants (Table D2); type: in vivo, Triticum aestivum; settings: crop plant; application rate 320 g/ha; visual grading after ca. 3 weeks
ABUTH [25] = assay: Herbicidal post-emergence action, section E (Table E1); type: in vivo, Abutilon theophrasti; settings: application rate 320 g/ha; assessed visually after ca. 3 weeks
From the text: (§3) 2 to 3 weeks after sowing, the test plants were sprayed in the single-leaf stage.

ECHCG [26] = assay: Herbicidal post-emergence action, section E (Table E5); type: in vivo, Echinochloa crus-galli; settings: application rate 320 g/ha; assessed visually after ca. 3 weeks
From the text: as §3

VERPE [27] = assay: Herbicidal post-emergence action, section E (Table E9); type: in vivo, Veronica persica; settings: application rate 320 g/ha; assessed visually after ca. 3 weeks
From the text: as §3

ZEAMX [28] = assay: Post-emergence effects on crop plants (Table F1); type: in vivo, Zea mays; settings: application rate 320 g/ha, crop plant ZEAMX
From the text: as §3

TRZAS [29] = assay: Post-emergence effects on crop plants (Table F2); type: in vivo, Triticum aestivum; settings: application rate 320 g/ha, crop plant TRZAS
From the text: as §3

ORYZA [30] = assay: Post-emergence effects on crop plants (Table F3); type: in vivo, Oryza sativa; settings: application rate 320 g/ha, crop plant ORYZA
From the text: as §3

ABUTH [31] = assay: Herbicidal pre-emergence action (Table A1); type: in vivo, Abutilon theophrasti; settings: application rate 1280 g/ha; visual grading after ca. 3 weeks vs untreated controls (100% = plants have died off, 0% = as control plants)
Summary of the method: as §1

ALOMY [32] = assay: Herbicidal pre-emergence action (Table A9); type: in vivo, Alopecurus myosuroides; settings: application rate 1280 g/ha; visual grading after ca. 3 weeks
Summary of the method: as §1

SETVI [33] = assay: Herbicidal post-emergence action (Table B8); type: in vivo, Setaria viridis; settings: application rate 1280 g/ha
Summary of the method: as §2

ABUTH [34] = assay: Herbicidal pre-emergence action, section C (Table C1); type: in vivo, Abutilon theophrasti; settings: application rate 320 g/ha; visual grading after ca. 3 weeks
VIOTR [35] = assay: Herbicidal post-emergence action, section E (Table E10); type: in vivo, Viola tricolor; settings: application rate 320 g/ha; assessed visually after ca. 3 weeks
From the text: as §3

ORYZA [36] = assay: Pre-emergence effects on crop plants (Table D3); settings: crop plant; application rate 80 g/ha; visual grading after ca. 3 weeks

SMILES | pre-emergence activity against LOLRI (LOLRI [2]) [%] | pre-emergence activity against MATIN (MATIN [3]) [%] | pre-emergence activity against SETVI (SETVI [4]) [%] | pre-emergence activity against STEME (STEME) [%] | pre-emergence activity against POAAN (POAAN [5]) [%] | pre-emergence activity against AMARE (AMARE) [%] | pre-emergence activity against KCHSC (KCHSC) [%] | pre-emergence activity against VERPE (VERPE [6]) [%] | post-emergence activity against ECHCG (ECHCG [9]) [%] | post-emergence activity against DIGSA (DIGSA [14]) [%] | pre-emergence activity against ALOMY (ALOMY [15]) [%] | pre-emergence activity against ECHCG (ECHCG [17]) [%] | pre-emergence activity against LOLRI (LOLRI [18]) [%] | pre-emergence activity against MATIN (MATIN [19]) [%] | pre-emergence activity against SETVI (SETVI [20]) [%] | pre-emergence activity against VIOTR (VIOTR [22]) [%] | post-emergence activity against ABUTH (ABUTH [25]) [%] | post-emergence activity against ZEAMX (ZEAMX [28]) [%] | post-emergence activity against TRZAS (TRZAS [29]) [%] | post-emergence activity against ORYZA (ORYZA [30]) [%] | further results
O=C1N(Cc2cccc(F)c2F)CCCC12CCN(Cc1cccc(F)c1F)C2=O (racemic) [I-025] | 100 | 90 | 100 | 90 | 100 | 90 | 90 | 90 | 90 | 90 | 100 | 100 | 90 | 90 | 90 | 90 | 80 | 0 | 0 | 0 | pre-emergence activity against ECHCG (ECHCG [1]; application rate 320 g/ha): 100%; pre-emergence activity against DIGSA (DIGSA [7]; application rate 1280 g/ha): 100%; post-emergence activity against ABUTH (ABUTH [8]): 90%; post-emergence activity against LOLRI (LOLRI [10]): 90%; post-emergence activity against MATIN (MATIN [11]): 90%; post-emergence activity against POAAN (POAAN [12]): 90%; post-emergence activity against VERPE (VERPE [13]): 90%; pre-emergence activity against DIGSA (DIGSA [16]; application rate 320 g/ha): 100%; pre-emergence activity against POLCO (POLCO): 90%; pre-emergence activity against VERPE (VERPE [21]; application rate 80 g/ha): 90%; pre-emergence activity against ZEAMX (ZEAMX [23]; application rate 320 g/ha): 0%; pre-emergence activity against TRZAS (TRZAS [24]): 10%; post-emergence activity against ECHCG (ECHCG [26]): 80%; post-emergence activity against VERPE (VERPE [27]): 80%
O=C1N(Cc2ccccc2F)CCCC12CCN(Cc1c(F)cccc1F)C2=O (racemic) [I-020] | 100 | 90 | 100 | 90 | 100 | 90 | 90 | 90 | 90 | 90 | 100 | 100 | 100 | 80 | 100 | 90 | 80 | 20 | 0 | 0 | pre-emergence activity against ABUTH (ABUTH [31]): 90%; pre-emergence activity against ECHCG (ECHCG [1]; application rate 1280 g/ha): 100%; pre-emergence activity against ALOMY (ALOMY [32]): 90%; pre-emergence activity against DIGSA (DIGSA [7]; application rate 320 g/ha): 100%; post-emergence activity against SETVI (SETVI [33]): 90%; pre-emergence activity against ABUTH (ABUTH [34]): 90%; pre-emergence activity against DIGSA (DIGSA [16]; application rate 80 g/ha): 100%; pre-emergence activity against VERPE (VERPE [21]; application rate 320 g/ha): 90%; pre-emergence activity against ZEAMX (ZEAMX [23]; application rate 80 g/ha): 0%; post-emergence activity against VIOTR (VIOTR [35]): 80%; pre-emergence activity against ORYZA (ORYZA [36]): 0%
